{"source": "patent US6069132A", "about": "“Phosphazole compounds” (priority 1997, dated 2000)", "key": {"[1]": {"system": "IL-1β", "assay": "Inhibition of IL-1β in LPS-stimulated PBMCs", "format": "cell-based, human", "conditions": "for inhibition at 10 µg/mL / inhibition at 50 µg/mL / inhibition at 100 µg/mL / inhibition at 250 µg/mL: Homo sapiens, PBMC; for inhibition at 10 µg/mL: 10 μg/ml; for inhibition at 50 µg/mL: 50 μg/ml; for inhibition at 100 µg/mL: 100 μg/ml; for inhibition at 250 µg/mL: 250 μg/ml", "experimental": "The phosphazole T70241 was further evaluated for its activity against IL-1β in PBMCs stumulated with LPS and aliquotes collected after 4, 24 and 48 hour post-stimulation.\nPrimary cell assays. Primary human peripheral blood mononuclear cells (PBMCS) were isolated as described by Ojwang et al. (114). Isolated monocytes were added to 24-well cluster plates (Costar, Cambridge, Mass.) at a concentration of 1×10^5 viable cells per well. Culture medium or test material dilutions in culture medium were added to the wells, the plates were then incubated at 37° C. for one hour. […] The plates were incubated an additional 4, 24 or 48 hours. The supernatant fluids were then harvested and centrifuged to pellet cells or cellular debris, and the supernatant fluids were stored at -70° C. until they were assayed for the presence of TNFα using a commercially available ELISA kit, such as that described in Example 46."}, "[2]": {"system": "IL-1β", "assay": "Inhibition of IL-1β production in LPS-stimulated THP-1 cells (ELISA)", "format": "cell-based, human", "conditions": "for IC50: Homo sapiens", "experimental": "Cell line. THP-1 cells (human monocyte) were maintained in RPMI 1640 medium containing 25 mM Hepes buffer, 2 mM L-glutamine, 50 units of penicillin per mL, 50 μg of streptomycin sulfate per mL, and 10% heat-inactivated fetal bovine serum (FBS) in a humidified incubator containing 5% CO2. The cells were split 1:4 weekly as recommended by the American Type Culture Collection (ATCC).\nTNFα assay. Varying concentrations of the test compound or control compound were added to THP-1 cells plated at a density of 1×10^6cells/mL in 600 μL of 10% RPMI in a 48 well plate. After one hour the cells were stimulated with 0.5 μg of lipopolysaccharide (LPS; Sigma, lot number 43H40491) per mL. Six hours post-stimulation supernatants were collected and assayed for TNFα or IL-1β production using a commercially available cytokine detection ELISA (Enzyme Linked Immunosorbent Assay) kit according to the suppliers instructions. A suitable assay kit may be obtained from Biosource, or R and D systems. A novel xanthine analog, HWA-3138, having the structure (as shown below) was used as the control compound (30) in this study to monitor the response of the THP-l cells. Xanthine analogs are known inhibitors of TNFα but not IL-1β. In the following experiments compound HWA-3138 was used as a positive control. [drawing 58] […]\nTHP-1 cells were cultured and IL-1β inhibition assays were conducted as described for TNFα in Example 46, except a commercially available IL-1β assay kit, obtained from R and D Systems, Minneapolis, Minn., was used instead of the TNFα kit.\nWith reference now to FIG. 8, for each concentration of T70241 tested, the membrane bound IL-1β was separated from the IL-1β found free in the culture medium at 6 hours post-LPS stimulation as described in Example 46 for TNFα, and the percent inhibition of each fraction was graphed."}, "[3]": {"assay": "Cytotoxicity on growing MRC-5 cells (MTS)", "format": "cell-based, human", "conditions": "human, mrc-5 cells", "experimental": "(§1) Cell Culture. Vero (African Green Monkey kidney cells) and MRC-5 (diploid Human Embryonic Lung fibroblasts) cells were obtained from the American Type Culture Collection (ATCC) and were grown in minimal essential medium (MEM) with Earl's salts and glutamine (GIBCO BRL, Life Technologies, Inc.) with 10% heat inactivated fetal bovine serum (GIBCO BRL) and penicillin (100 μg/mL)/streptomycin (100 μg/mL).\n(§2) Cytotoxicity Analysis. The cytotoxicity of the compound was assayed using few the CellTiter 96™ Aqueous Non-Radioactive Cell Proliferation (MTS) Assay (Promega). Briefly, viable cell number was determined by trypan blue staining and cells (MRC-5 and Vero) were resuspended in minimal essential medium (MEM) supplemented with 10% FBS (GIBCO). Eighty microliters of cell suspension (1.7×10^4 cells/well) was dispensed onto a 96-well microtiter plates. At this time 20 μL of drug (or control) was added to appropriate wells. Each concentration was assayed in quadruplicate. The plates were incubated at 37° C. in a humidified 5% CO2 atmosphere for 4 days and MTS assay was performed according to the manufacturer's instructions. The average absorbence of the sample was graphed for each concentration and the data obtained was used to calculate TC50 (the concentration necessary to give one-half maximum growth) for each compound."}, "[4]": {"system": "HSV-1", "assay": "HSV-1 CPE assay in Vero cells", "format": "cell-based", "conditions": "Human alphaherpesvirus 1, Vero; Table 4"}, "[5]": {"assay": "Cytotoxicity on static Vero cells", "format": "cell-based", "conditions": "african green monkey, Table 4, 50% cell death (static cells), read-out: TC50 Static Vero", "experimental": "as §1, §2"}, "[6]": {"assay": "Cytotoxicity on growing Vero cells (MTS)", "format": "cell-based", "conditions": "african green monkey, Table 4, 50% inhibition of logphase growing cells, read-out: TC50 Growing Vero", "experimental": "as §1, §2"}, "[7]": {"system": "adenosine deaminase (ADA)", "assay": "Enzymatic hydrolysis by adenosine deaminase", "format": "in vitro ADME, calf", "experimental": "Adenosine deaminase (ADA, adenosine aminohydrolase, EC 3.5.4.4, SIGMA) from calf intestinal mucosa was prepared to give a stock of 1 mg/mL (250-280 units/mL) in pH 7.4, 0.01 M phosphate buffer. The relative rates of hydrolysis of selected compounds by ADA and characterization of the products was carried as follows. […] Fifty-microliter aliquots were taken at time intervals and hydrolysis was quenched by mixing with 0.45 mL of distilled water and then the diluted sample was heated at 95° C. for 6 min to ensure enxyme deactivation. The decrease in substrate concentration and the formation of the products was followed over time by UV-spectroscopic analysis. Adenosine was used as a control in this experiment and one unit is defined as the amount of ADA that hydrolyzes 1.0 μmol of adenosine/min at 25° C."}, "[8]": {"system": "HSV-2", "assay": "HSV-2 CPE assay in Vero cells", "format": "cell-based", "conditions": "Human alphaherpesvirus 2, Vero; Table 4"}, "[9]": {"conditions": "Table 2, LPS-stimulated THP-1, 6 h post-stimulation, read-out: IC50 IL-1β in THP-1 cells"}}, "note": "Like-named read-outs stand apart in the source and are kept apart here."}
{"molecule": "Nc1ncnc2pc[nH]c12", "note": "(stereo not drawn) [T70241, 7-amino-1H-1,3-azaphospholo[4,5-d]pyrimidine]", "values": [{"measurement": "inhibition at 10 µg/mL", "setting": "[1]; 4 h", "result": 18, "unit": "%"}, {"measurement": "inhibition at 10 µg/mL", "setting": "[1]; 24 h", "result": 6, "unit": "%"}, {"measurement": "inhibition at 10 µg/mL", "setting": "[1]; 48 h", "result": 4, "unit": "%"}, {"measurement": "inhibition at 50 µg/mL", "setting": "[1]; 4 h", "result": 86, "unit": "%"}, {"measurement": "inhibition at 50 µg/mL", "setting": "[1]; 24 h", "result": 24, "unit": "%"}, {"measurement": "inhibition at 50 µg/mL", "setting": "[1]; 48 h", "result": 36, "unit": "%"}, {"measurement": "inhibition at 100 µg/mL", "setting": "[1]; 4 h", "result": 98, "unit": "%"}, {"measurement": "inhibition at 100 µg/mL", "setting": "[1]; 24 h", "result": 78, "unit": "%"}, {"measurement": "inhibition at 100 µg/mL", "setting": "[1]; 48 h", "result": 70, "unit": "%"}, {"measurement": "inhibition at 250 µg/mL", "setting": "[1]; 4 h", "result": 99.7, "unit": "%"}, {"measurement": "inhibition at 250 µg/mL", "setting": "[1]; 24 h", "result": 86, "unit": "%"}, {"measurement": "inhibition at 250 µg/mL", "setting": "[1]; 48 h", "result": 75, "unit": "%"}, {"measurement": "inhibition of IL-1β in PBMCs", "setting": "[1]; up to 48 hour", "result": "inhibited IL-1β up to 48 hour in a dose dependent fashion"}, {"measurement": "inhibition of IL-1β production", "setting": "[2]; 50 to 100 μg/mL, THP-1 (FIG. 6)", "result": "able to inhibit IL-1β production"}, {"measurement": "cell-associated and free IL-1β", "setting": "[2]; 6 hours post-LPS (FIG. 8)", "result": "reduce both the cell-associated (intracelluar) and the free (extracellular) IL-1β"}, {"measurement": "IC50", "setting": "[2]; [9]", "result": 16.1, "unit": "µg/mL"}, {"measurement": "IC50", "setting": "[2]; from FIG. 6, LPS-stimulated THP-1, read-out: IC50, IL-1β production", "result": 38.8, "unit": "µg/mL"}, {"measurement": "CC50 at 96 h", "setting": "[3]; FIG. 9A, four day period, read-out: TC50, growing MRC-5 cells", "result": "> 50", "unit": "µg/mL"}, {"measurement": "IC50", "setting": "[4]", "result": "> 50", "unit": "µg/mL"}, {"measurement": "CC50 at 96 h", "setting": "[5]", "result": "> 50", "unit": "µg/mL"}, {"measurement": "CC50 at 96 h", "setting": "[6]", "result": "> 50", "unit": "µg/mL"}, {"measurement": "ADA substrate", "setting": "[7]", "result": "not a substrate for ADA"}, {"measurement": "hydrolysis by ADA: UV spectra", "setting": "[7]; up to 5 hours in presence of ADA", "result": "remained unchanged"}, {"measurement": "IC50", "setting": "[8]", "result": "> 50", "unit": "µg/mL"}]}
{"molecule": "CCCCCn1cpc2ncnc(N)c21", "note": "(stereo not drawn) [T70254, 7-Amino-1-(n-pentyl)-1,3-azaphospholo[4,5-d]pyrimidine]", "values": [{"measurement": "IC50", "setting": "[2]; [9]", "result": 152, "unit": "µg/mL"}, {"measurement": "CC50 at 96 h", "setting": "[3]; Table 4, 50% inhibition of logphase growing cells, read-out: TC50 Growing MRC-5", "result": 17.9, "unit": "µg/mL"}, {"measurement": "IC50", "setting": "[4]", "result": "> 50", "unit": "µg/mL"}, {"measurement": "CC50 at 96 h", "setting": "[5]", "result": 18.2, "unit": "µg/mL"}, {"measurement": "CC50 at 96 h", "setting": "[6]", "result": 8.18, "unit": "µg/mL"}, {"measurement": "IC50", "setting": "[8]", "result": "> 50", "unit": "µg/mL"}]}
